Measured values published in ChEMBL document CHEMBL1143165, “N-[omega-[4-(2-methoxyphenyl)-1-piperazinyl]alkyl]-2-quinolinamines as high-affinity fluorescent 5-HT1A receptor ligands” (J Med Chem, 2008).
Calls of active or inactive are those of the source. No cut-off for these calls is given here.

Columns and labels:
[1] = molecular target: T1, 5-hydroxytryptamine receptor 1A (Homo sapiens, UniProt P08908); experiment: Displacement of [3H]8-OH-DPAT from human 5HT1A receptor expressed in HEK293 cells after 120 mins; assay type: cell-based
T1 sequence (P08908 whole entry): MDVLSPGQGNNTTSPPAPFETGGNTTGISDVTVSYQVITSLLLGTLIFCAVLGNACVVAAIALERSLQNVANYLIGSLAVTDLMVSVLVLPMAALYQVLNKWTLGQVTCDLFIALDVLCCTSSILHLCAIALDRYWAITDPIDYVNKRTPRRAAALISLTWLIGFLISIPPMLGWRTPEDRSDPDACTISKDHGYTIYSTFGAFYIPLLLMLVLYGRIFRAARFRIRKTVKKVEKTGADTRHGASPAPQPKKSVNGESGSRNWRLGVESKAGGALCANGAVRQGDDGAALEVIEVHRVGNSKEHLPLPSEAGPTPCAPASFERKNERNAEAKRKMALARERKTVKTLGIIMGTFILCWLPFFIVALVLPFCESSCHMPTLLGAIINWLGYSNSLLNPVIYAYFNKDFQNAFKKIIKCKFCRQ

Cavia porcellus = organism: Cavia porcellus; experiment: Reversal of agonist activity at 5HT1A receptor in guinea pig in presence of 5HT1A antagonist WAY-100635; assay type: functional
[2] = Agonist activity at 5HT1A receptor in guinea pig ileum assessed as inhibition of electrically-stimulated muscle contraction; assay type: functional, tissue-based; settings: Cavia porcellus
[3] = Agonist activity at 5HT1A receptor in guinea pig ileum assessed as inhibition of electrically-stimulated muscle contraction relative to baseline; assay type: functional, Cavia porcellus; parameters: scale not given: the % may be the effect or the level left

Ki [1] [nM]	Structure (SMILES)	other results
2.1	COc1ccc2ccc(NCCN3CCN(c4ccccc4OC)CC3)nc2c1	
13	COc1ccccc1N1CCN(CCCNc2ccc3ccccc3n2)CC1	
0.2	COc1ccc2nc(NCCCCN3CCN(c4ccccc4OC)CC3)ccc2c1	Activity (Cavia porcellus): Active; EC50 [2]: 34400 nM
33	COc1ccccc1N1CCN(CCNc2ccc3ccccc3n2)CC1	
0.38	COc1ccccc1N1CCN(CCCCNc2ccc3cc(N)ccc3n2)CC1	Activity [3]: 81%; EC50 [2]: 62100 nM

Second part, the compound before the results:

Structure (SMILES)	Ki [1] [nM]	other results
COc1ccccc1N1CCN(CCCCNc2ccc3cc(C)ccc3n2)CC1	0.54	
COc1ccccc1N1CCN(CCCCNc2ccc3ccccc3n2)CC1	9.7	
COc1ccccc1N1CCN(CCCCCNc2ccc3ccccc3n2)CC1	0.03	
COc1ccc2nc(NCCCCCN3CCN(c4ccccc4OC)CC3)ccc2c1	2.6	
COc1ccc2ccc(NCCCCN3CCN(c4ccccc4OC)CC3)nc2c1	4.6	
COc1ccc2ccc(NCCCCCN3CCN(c4ccccc4OC)CC3)nc2c1	0.5	
COc1ccc2ccc(NCCCN3CCN(c4ccccc4OC)CC3)nc2c1	0.2	
COc1ccc2nc(NCCN3CCN(c4ccccc4OC)CC3)ccc2c1	28	
COc1ccccc1N1CCN(CCNc2ccc3cc([N+](=O)[O-])ccc3n2)CC1	14.2	
COc1ccc2nc(NCCCN3CCN(c4ccccc4OC)CC3)ccc2c1	22	
